Data published in patent US20090264292A1, “HERBICIDAL COMPOSITION” (ISHIHARA SANGYO KAISHA, LTD., priority 2005, published 2009).

Assays:
Assay type in all cases: in vivo
[1] = system: velvetleaf (Abutilon theophrasti MEDIC.); experiment: Test Example 3: pot test, foliar application, velvetleaf; conditions: 2.3 to 2.5 leaf stage, 14th day after application, read-out: Velvetleaf Growth inhibition rate (%) Observed
Method: (§1) Growth inhibition rate (%)=0% (equivalent to the non-treated area) to 100% (complete kill)
(§2) Upland field soil was put into a 1/1,000,000 ha pot, and seeds of velvetleaf (Abutilon theophrasti MEDIC.) were sown. Then, when velvetleaf reached 2.3 to 2.5 leaf stage, a prescribed amount of the herbicidal composition was diluted with water corresponding to 300 L/ha, and foliar application was carried out by means of a small size spray.
On the 14th day after the application, the state of growth of velvetleaf was visually observed and evaluated in the same manner as in the above Test Example 1.

[2] = system: velvetleaf (Abutilon theophrasti MEDIC.); experiment: Test Example 1: pot test, foliar application, velvetleaf; conditions: 2.8 leaf stage, 21st day after application, read-out: Velvetleaf Growth inhibition rate (%) Observed
Method: (§3) Upland field soil was put into a 1/1,000,000 ha pot, and seeds of various plants were sown. Then, when the plants reached the prescribed leaf stages ((1) 3.6 leaf stage of crabgrass (Digitaria sanguinalis L.), and (2), 2.8 leaf stage of velvetleaf (Abutilon theophrasti MEDIC.)), a prescribed amount of the herbicidal composition was diluted with water corresponding to 300 L/ha, and foliar application was carried out by means of a small size spray. On the 21st day after the application, the state of growth of each plant was visually observed, and the growth inhibition rate (%) evaluated in accordance with the following evaluation standard (observed value) and the growth inhibition rate (%) calculated by the above-mentioned Colby method (expected value) are shown in Tables 1 and 2 .
as §1

[3] = system: velvetleaf (Abutilon theophrasti MEDIC.); experiment: Test Example 2: pot test, foliar application, velvetleaf; conditions: 2.9 leaf stage, 21st day after application, read-out: Velvetleaf Growth inhibition rate (%) Observed
Method: as §1
as §2, with “2.9” for “2.3 to 2.5”
On the 21st day after the application, the state of growth of velvetleaf was visually observed and evaluated in the same manner as in the above Test Example 1.

[4] = system: crabgrass (Digitaria sanguinalis L.); experiment: Test Example 1: pot test, foliar application, crabgrass; conditions: 3.6 leaf stage, 21st day after application, read-out: Crabgrass Growth inhibition rate (%) Observed
Method: as §3, §1

SMILES: CCNc1nc(Cl)nc(NC(C)(C)C)n1 [Compound B-1, N^2-tert-butyl-6-chloro-N^4-ethyl-1,3,5-triazine-2,4-diamine]
- inhibition at 1000 g/ha ([1]; 1000 g/ha): 37%
- inhibition at 1500 g/ha ([1]; 1500 g/ha): 43%
- inhibition at 2000 g/ha ([1]; 2000 g/ha): 43%
- inhibition at 250 g/ha ([2]; 250 g/ha): 57%
- inhibition at 500 g/ha ([2]; 500 g/ha): 58%
- inhibition at 500 g/ha ([3]; 500 g/ha): 47%
- inhibition at 250 g/ha ([4]; 250 g/ha): 5%
- inhibition at 500 g/ha ([4]; 500 g/ha): 8%

SMILES: COc1cc(OC)nc(NC(=O)NS(=O)(=O)c2ncccc2C(=O)N(C)C)n1 [Compound A-1, 2-(4,6-dimethoxypyrimidin-2-ylcarbamoylsulfamoyl)-N,N-dimethylnicotinamide]
- inhibition at 5 g/ha ([1]; 5 g/ha): 5%
- inhibition at 10 g/ha ([1]; 10 g/ha): 8%
- inhibition at 15 g/ha ([1]; 15 g/ha): 12%
- inhibition at 50 g/ha ([2]; 50 g/ha): 60%
- inhibition at 25 g/ha ([3]; 25 g/ha): 38%
- inhibition at 25 g/ha ([4]; 25 g/ha): 53%
